In test [1] the target is T1, Potassium voltage-gated channel subfamily A member 3 (Homo sapiens, UniProt P22001). More on the design: species or system Blood.
Test [2] concerns the target T1, Potassium voltage-gated channel subfamily A member 3. The format is cell-based, CHO-K1.
Test [3] has the same target. Kind of test: cell-based. Also noted: species or system Blood.

SMILES strings stand for the structures. pIC50: −log10 of the molar value. A value given as a limit tells only on which side of the number the result lay.

T1 sequence (P22001 whole entry): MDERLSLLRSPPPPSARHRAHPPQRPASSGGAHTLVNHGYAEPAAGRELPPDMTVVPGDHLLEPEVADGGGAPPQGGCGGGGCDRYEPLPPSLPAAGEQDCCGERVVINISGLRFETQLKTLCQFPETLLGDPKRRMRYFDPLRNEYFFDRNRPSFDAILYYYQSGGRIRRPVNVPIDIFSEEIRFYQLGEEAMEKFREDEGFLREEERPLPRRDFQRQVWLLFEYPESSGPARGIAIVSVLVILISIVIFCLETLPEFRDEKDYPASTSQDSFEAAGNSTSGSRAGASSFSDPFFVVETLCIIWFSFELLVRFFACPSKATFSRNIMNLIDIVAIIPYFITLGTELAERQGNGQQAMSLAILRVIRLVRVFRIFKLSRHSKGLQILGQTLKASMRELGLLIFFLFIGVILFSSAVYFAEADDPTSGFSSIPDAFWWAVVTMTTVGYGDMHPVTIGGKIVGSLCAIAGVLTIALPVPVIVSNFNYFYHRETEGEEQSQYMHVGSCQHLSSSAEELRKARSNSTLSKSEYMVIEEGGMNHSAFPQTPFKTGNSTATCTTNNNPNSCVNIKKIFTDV

As a reminder, the pIC50 is the IC50 on a negative log10 scale, so that one unit is a factor of ten. A high value points to a low IC50. Consider `CC[C@H](C)[C@@H]1NC(=O)[C@@H](NC(=O)[C@H](CO)NC(=O)[C@@H](N)CCCNC(=N)N)CSSC[C@@H](C(=O)O)NC(=O)[C@H](C)NC(=O)CNC(=O)[C@@H]2CSSC[C@@H]3NC(=O)[C@H](CCC(N)=O)NC(=O)[C@H](Cc4ccccc4)NC(=O)[C@H](C)NC(=O)[C@H]([C@@H](C)O)NC(=O)[C@H](CSSC[C@H](NC(=O)[C@H](Cc4ccccc4)NC(=O)[C@H](CO)NC(=O)[C@H](CC(C)C)NC(=O)[C@H](CCCNC(=N)N)NC(=O)[C@H](Cc4ccc(O)cc4)NC(=O)[C@H](CCCCN)NC(=O)[C@H](CCSC)NC(=O)[C@H](CO)NC(=O)[C@H](Cc4cnc[nH]4)NC(=O)[C@H](CCCCN)NC3=O)C(=O)N[C@@H](CCCNC(=N)N)C(=O)N[C@@H](CCCCN)C(=O)N[C@@H]([C@@H](C)O)C(=O)N2)NC(=O)[C@H](CCCNC(=N)N)NC(=O)[C@H](CO)NC(=O)[C@H](CCCCN)NC(=O)[C@@H]2CCCN2C(=O)[C@H]([C@@H](C)CC)NC(=O)[C@H]([C@@H](C)O)NC(=O)[C@H](CC(=O)O)NC1=O`, for which the pIC50 is 10.08 in test [1], 9.88 in test [2] and 10.28 in test [3].

Take `CC[C@H](C)[C@@H]1NC(=O)[C@@H](NC(=O)[C@H](Cc2cccc3ccccc23)NC(=O)[C@@H](N)CCCNC(=N)N)CSSC[C@@H](C(=O)O)NC(=O)[C@H]([C@@H](C)O)NC(=O)CNC(=O)[C@@H]2CSSC[C@@H]3NC(=O)[C@H](CCC(N)=O)NC(=O)[C@H](Cc4ccccc4)NC(=O)[C@H](C)NC(=O)[C@H]([C@@H](C)O)NC(=O)[C@H](CSSC[C@H](NC(=O)[C@H](Cc4ccccc4)NC(=O)[C@H](CO)NC(=O)[C@H](CC(C)C)NC(=O)[C@H](CCCNC(=N)N)NC(=O)[C@H](Cc4ccc(O)cc4)NC(=O)[C@H](CCCCN)NC(=O)[C@H](CCSC)NC(=O)[C@H](CO)NC(=O)[C@H](Cc4cnc[nH]4)NC(=O)[C@H](CCCCN)NC3=O)C(=O)N[C@@H](CCCNC(=N)N)C(=O)N[C@@H](CCCCN)C(=O)N[C@@H]([C@@H](C)O)C(=O)N2)NC(=O)[C@H](CCCNC(=N)N)NC(=O)[C@H](CO)NC(=O)[C@H](CCCCN)NC(=O)[C@@H]2CCCN2C(=O)[C@H]([C@@H](C)CC)NC(=O)[C@H]([C@@H](C)O)NC(=O)[C@H](CC(=O)O)NC1=O`: the pIC50 in test [1] is 9.59; in test [2], 9.59; in test [3] it was 9.65.

Take `CC[C@H](C)[C@@H]1NC(=O)[C@H]([C@@H](C)O)NC(=O)[C@H](CC(=O)O)NC(=O)[C@H](Cc2cccc3ccccc23)NC(=O)[C@@H](NC(=O)[C@H](CO)NC(=O)[C@@H](N)CCCNC(=N)N)CSSC[C@@H](C(=O)O)NC(=O)[C@H]([C@@H](C)O)NC(=O)CNC(=O)[C@@H]2CSSC[C@@H]3NC(=O)[C@H](CCC(N)=O)NC(=O)[C@H](Cc4ccccc4)NC(=O)[C@H](C)NC(=O)[C@H]([C@@H](C)O)NC(=O)[C@H](CSSC[C@H](NC(=O)[C@H](Cc4ccccc4)NC(=O)[C@H](CO)NC(=O)[C@H](CC(C)C)NC(=O)[C@H](CCCNC(=N)N)NC(=O)[C@H](Cc4ccc(O)cc4)NC(=O)[C@H](CCCCN)NC(=O)[C@H](CCSC)NC(=O)[C@H](CO)NC(=O)[C@H](Cc4cnc[nH]4)NC(=O)[C@H](CCCCN)NC3=O)C(=O)N[C@@H](CCCNC(=N)N)C(=O)N[C@@H](CCCCN)C(=O)N[C@@H]([C@@H](C)O)C(=O)N2)NC(=O)[C@H](CCCNC(=N)N)NC(=O)[C@H](CO)NC(=O)[C@H](CCCCN)NC(=O)[C@@H]2CCCN2C1=O`: the figures for the negative logarithm of the IC50 (pIC50) in test [1], in test [2] and in test [3] were 9.50, 9.81 and 9.56, respectively.

Regarding `CC[C@H](C)[C@@H]1NC(=O)[C@@H](NC(=O)[C@H](CO)NC(=O)[C@@H](N)CCCNC(=N)N)CSSC[C@@H](C(=O)O)NC(=O)[C@H]([C@@H](C)O)NC(=O)CNC(=O)[C@@H]2CSSC[C@@H]3NC(=O)[C@H](CCC(N)=O)NC(=O)[C@H](Cc4ccccc4)NC(=O)[C@H](C)NC(=O)[C@H]([C@@H](C)O)NC(=O)[C@H](CSSC[C@H](NC(=O)[C@H](Cc4ccccc4)NC(=O)[C@H](CO)NC(=O)[C@H](CC(C)C)NC(=O)[C@H](CCCNC(=N)N)NC(=O)[C@H](Cc4ccc(O)cc4)NC(=O)[C@H](CCCCN)NC(=O)[C@H](CCSC)NC(=O)[C@H](CO)NC(=O)[C@H](Cc4cnc[nH]4)NC(=O)[C@H](CCCCN)NC3=O)C(=O)N[C@@H](CCCNC(=N)N)C(=O)N[C@@H](CCCCN)C(=O)N[C@@H]([C@@H](C)O)C(=O)N2)NC(=O)[C@H](CCCNC(=N)N)NC(=O)[C@H](CO)NC(=O)[C@H](CCCCN)NC(=O)[C@@H]2CCCN2C(=O)[C@H]([C@@H](C)CC)NC(=O)[C@H]([C@@H](C)O)NC(=O)[C@H](Cc2cccc3ccccc23)NC1=O`, the results for the pIC50 in test [1], in test [2] and in test [3] were below 7.50, below 8.48 and 7.15, respectively.

As to `CC[C@H](C)[C@@H]1NC(=O)[C@@H](NC(=O)[C@H](CO)NC(=O)[C@@H](N)CCCNC(=N)N)CSSC[C@@H](C(=O)O)NC(=O)[C@H]([C@@H](C)O)NC(=O)CNC(=O)[C@@H]2CSSC[C@@H]3NC(=O)[C@H](CCC(N)=O)NC(=O)[C@H](Cc4ccccc4)NC(=O)[C@H](C)NC(=O)[C@H]([C@@H](C)O)NC(=O)[C@H](CSSC[C@H](NC(=O)[C@H](Cc4ccccc4)NC(=O)[C@H](CO)NC(=O)[C@H](CC(C)C)NC(=O)[C@H](CCCNC(=N)N)NC(=O)[C@H](Cc4ccc(O)cc4)NC(=O)[C@H](CCCCN)NC(=O)[C@H](CCSC)NC(=O)[C@H](CO)NC(=O)[C@H](Cc4c[nH]cn4)NC(=O)[C@H](CCCCN)NC3=O)C(=O)N[C@@H](CCCNC(=N)N)C(=O)N[C@@H](CCCCN)C(=O)N[C@@H]([C@@H](C)O)C(=O)N2)NC(=O)[C@H](CCCNC(=N)N)NC(=O)[C@H](CO)NC(=O)[C@H](CCCCN)NC(=O)[C@@H]2CCCN2C(=O)[C@H]([C@@H](C)CC)NC(=O)[C@H](Cc2cccc3ccccc23)NC(=O)[C@H](CC(=O)O)NC1=O`, the pIC50 in test [1] is 9.02; in test [2] it was 9.82; in test [3], 9.07.

As to `CC[C@H](C)[C@@H]1NC(=O)[C@@H](NC(=O)[C@H](CO)NC(=O)[C@@H](N)CCCNC(=N)N)CSSC[C@@H](C(=O)O)NC(=O)[C@H]([C@@H](C)O)NC(=O)CNC(=O)[C@@H]2CSSC[C@@H]3NC(=O)[C@H](CCC(N)=O)NC(=O)[C@H](Cc4ccccc4)NC(=O)[C@H](C)NC(=O)[C@H]([C@@H](C)O)NC(=O)[C@H](CSSC[C@H](NC(=O)[C@H](Cc4ccccc4)NC(=O)[C@H](CO)NC(=O)[C@H](CC(C)C)NC(=O)[C@H](CCCNC(=N)N)NC(=O)[C@H](Cc4ccc(O)cc4)NC(=O)[C@H](CCCCN)NC(=O)[C@H](CCSC)NC(=O)[C@H](CO)NC(=O)[C@H](Cc4cnc[nH]4)NC(=O)[C@H](CCCCN)NC3=O)C(=O)N[C@@H](CCCNC(=N)N)C(=O)N[C@@H](CCCCN)C(=O)N[C@@H]([C@@H](C)O)C(=O)N2)NC(=O)[C@H](CCCNC(=N)N)NC(=O)[C@H](CO)NC(=O)[C@H](CCCCN)NC(=O)[C@@H]2CCCN2C(=O)[C@H](Cc2cccc3ccccc23)NC(=O)[C@H]([C@@H](C)O)NC(=O)[C@H](CC(=O)O)NC1=O`, the pIC50 in test [1] was 7.74; in test [2] it was below 8.48; in test [3] it was 7.94.

`CC[C@H](C)[C@@H]1NC(=O)[C@@H](NC(=O)[C@H](CO)NC(=O)[C@@H](N)CCCNC(=N)N)CSSC[C@@H](C(=O)O)NC(=O)[C@H]([C@@H](C)O)NC(=O)CNC(=O)[C@@H]2CSSC[C@@H]3NC(=O)[C@H](Cc4cccc5ccccc45)NC(=O)[C@H](Cc4ccccc4)NC(=O)[C@H](C)NC(=O)[C@H]([C@@H](C)O)NC(=O)[C@H](CSSC[C@H](NC(=O)[C@H](Cc4ccccc4)NC(=O)[C@H](CO)NC(=O)[C@H](CC(C)C)NC(=O)[C@H](CCCNC(=N)N)NC(=O)[C@H](Cc4ccc(O)cc4)NC(=O)[C@H](CCCCN)NC(=O)[C@H](CCSC)NC(=O)[C@H](CO)NC(=O)[C@H](Cc4cnc[nH]4)NC(=O)[C@H](CCCCN)NC3=O)C(=O)N[C@@H](CCCNC(=N)N)C(=O)N[C@@H](CCCCN)C(=O)N[C@@H]([C@@H](C)O)C(=O)N2)NC(=O)[C@H](CCCNC(=N)N)NC(=O)[C@H](CO)NC(=O)[C@H](CCCCN)NC(=O)[C@@H]2CCCN2C(=O)[C@H]([C@@H](C)CC)NC(=O)[C@H]([C@@H](C)O)NC(=O)[C@H](CC(=O)O)NC1=O`: the pIC50 in test [1] is 8.02; in test [2] it was 8.84; in test [3], 7.54.

As for `CC[C@H](C)[C@@H]1NC(=O)[C@@H](NC(=O)[C@H](CO)NC(=O)[C@@H](N)CCCNC(=N)N)CSSC[C@@H](C(=O)O)NC(=O)[C@H]([C@@H](C)O)NC(=O)CNC(=O)[C@@H]2CSSC[C@@H]3NC(=O)[C@H](CCC(N)=O)NC(=O)[C@H](Cc4ccccc4)NC(=O)[C@H](C)NC(=O)[C@H]([C@@H](C)O)NC(=O)[C@H](CSSC[C@H](NC(=O)[C@H](Cc4ccccc4)NC(=O)[C@H](CO)NC(=O)[C@H](CC(C)C)NC(=O)[C@H](CCCNC(=N)N)NC(=O)[C@H](Cc4ccc(O)cc4)NC(=O)[C@H](CCCCN)NC(=O)[C@H](CCSC)NC(=O)[C@H](Cc4cccc5ccccc45)NC(=O)[C@H](Cc4cnc[nH]4)NC(=O)[C@H](CCCCN)NC3=O)C(=O)N[C@@H](CCCNC(=N)N)C(=O)N[C@@H](CCCCN)C(=O)N[C@@H]([C@@H](C)O)C(=O)N2)NC(=O)[C@H](CCCNC(=N)N)NC(=O)[C@H](CO)NC(=O)[C@H](CCCCN)NC(=O)[C@@H]2CCCN2C(=O)[C@H]([C@@H](C)CC)NC(=O)[C@H]([C@@H](C)O)NC(=O)[C@H](CC(=O)O)NC1=O`, the pIC50 in test [1] was below 7.00; in test [2], below 8.48; in test [3], below 7.00.

The values are drawn from ChEMBL document CHEMBL3608278 (J Med Chem, 2015).
